Source: US9497970B2, “Pesticide compounds” (priority 2013, dated 2016)

Tests used:
Assay type in all cases: in vivo
[1] = tested on: Yellow Fever Mosquito (Aedes aegypti); test: whole plant or invertebrate; conditions: 48 h, freshly hatched larvae in tap water, 2 days, in comparison with untreated controls, read-out: mortality (larval)
Experimental: B.11 Yellow Fever Mosquito (Aedes aegypti)
For evaluating control of yellow fever mosquito (Aedes aegypti) the test unit consisted of 96-well-microtiter plates containing 200 μl of tap water per well and 5-15 freshly hatched A. aegypti larvae.
The active compounds were formulated using a solution containing 75% (v/v) water and 25% (v/v) DMSO. Different concentrations of formulated compounds or mixtures were sprayed onto the insect diet at 2.5 μl, using a custom built micro atomizer, at two replications.

[2] = tested on: Green Peach Aphid (Myzus persicae); test: B.9 Green Peach Aphid (Myzus persicae), sprayed bell pepper plants; conditions: 120 h, infested bell pepper plants sprayed, after 5 days, in comparison with untreated controls
Experimental: B.9 Green Peach Aphid (Myzus persicae)
(§1) The active compounds were formulated by a Tecan liquid handler in 100% cyclohexa none as a 10,000 ppm solution supplied in tubes. The 10,000 ppm solution was serially diluted in 100% cyclohexanone to make interim solutions. These served as stock solutions for which final dilutions were made by the Tecan in 50% acetone:50% water (v/v) into 5 or 10 ml glass vials. A nonionic surfactant (Kinetic®) was included in the solution at a volume of 0.01% (v/v). The vials were then inserted into an automated electrostatic sprayer equipped with an atomizing nozzle for application to plants/insects.
Bell pepper plants at the first true-leaf stage were infested prior to treatment by placing heavily infested leaves from the main colony on top of the treatment plants. Aphids were allowed to transfer overnight to accomplish an infestation of 30-50 aphids per plant and the host leaves were removed. The infested plants were then sprayed by an automated electrostatic plant sprayer equipped with an atomizing spray nozzle. The plants were dried in the sprayer fume hood, removed, and then maintained in a growth room under fluorescent lighting in a 24-hr photoperiod at about 25° C. and about 20-40% relative humidity. Aphid mortality on the treated plants, relative to mortality on untreated control plants, was determined after 5 days.

[3] = tested on: Boll Weevil (Anthonomus grandis); test: B.3 Boll Weevil (Anthonomus grandis), microtiter plate insect diet; conditions: 120 h, 800 ppm, sprayed onto insect diet, 5 days, in comparison with untreated controls, read-out: mortality (egg and larval)
Method in brief: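 Compounds in 25% DMSO/water sprayed at several concentrations onto insect diet in microtiter wells holding 5–10 A. grandis eggs, two replicates. Plates kept 5 days at about 25±1 °C and 75±5% RH. Egg and larval mortality scored visually.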

[4] = tested on: Tobacco Budworm (Heliothis virescens); test: B.7 Tobacco Budworm (Heliothis virescens) I, microtiter plate insect diet; conditions: 120 h, 800 ppm, sprayed onto insect diet, 5 days, in comparison with untreated controls, read-out: mortality (egg and larval)
Method in brief: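 96-well plates with insect diet and 15-25 H. virescens eggs; compounds in 75% water/25% DMSO sprayed onto diet at several concentrations, two replicates. Plates held at about 28±1° C. and 80±5% relative humidity for 5 days, then egg and larval mortality scored visually.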

[5] = tested on: Orchid thrips (dichromothrips corbetti); test: B.12 Orchid thrips (dichromothrips corbetti), floral-immersion technique; conditions: adult thrips on dipped orchid petals, 72 hours after treatment, in comparison with untreated controls
Method in brief: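 Whole orchid flower petals were dipped in compound in 1:1 acetone:water with 0.01% v/v Kinetic HV, dried, and enclosed with about 20 adult thrips. They were held under continuous light at about 28° C. Live thrips were counted and percent mortality recorded at 72 hours.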

[6] = tested on: Mediterranean Fruitfly (Ceratitis capitata); test: B.6 Mediterranean Fruitfly (Ceratitis capitata), microtiter plate insect diet; conditions: 120 h, 800 ppm, sprayed onto insect diet, 5 days, in comparison with untreated controls, read-out: mortality (egg and larval)
Method in brief: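 Insect diet with 50-80 C. capitata eggs sprayed with compounds formulated in 75% water/25% DMSO, at different concentrations, two replications. Incubation at about 28±1° C and 80±5% relative humidity for 5 days, then egg and larval mortality assessed visually.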

[7] = tested on: Diamond Back Moth (Plutella xylostella); test: B.1 Diamond Back Moth (Plutella xylostella), cabbage leaf dip; conditions: foliar, 500 ppm, 3rd instar larvae on dipped cabbage leaves, 72 hours after treatment, in comparison with untreated controls, read-out: mortality
Method in brief: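 Cabbage leaves dipped in compound in 1:1 water:acetone with 0.01% Kinetic HV surfactant, air-dried, then infested with ten 3rd-instar larvae on moist filter paper. Mortality scored at 72 h after treatment; feeding damage rated on a 0-100% scale.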

[8] = tested on: Silverleaf Whitefly (Bemisia argentifoli); test: B.5 Silverleaf Whitefly (Bemisia argentifoli), sprayed cotton plants; conditions: 72 h, whitefly adults on sprayed cotton plants, 3 days after treatment, in comparison with untreated controls
Experimental: B.5 Silverleaf Whitefly (Bemisia argentifoli)
as §1, with “cyclohexanone” for “cyclohexa none”
Cotton plants at the cotyledon stage (one plant per pot) were sprayed by an automated electrostatic plant sprayer equipped with an atomizing spray nozzle. The plants were dried in the sprayer fume hood and then removed from the sprayer. Each pot was placed into a plastic cup and about 10 to 12 whitefly adults (approximately 3-5 days old) were introduced. The insects were collected using an aspirator and a nontoxic Tygon® tubing connected to a barrier pipette tip. The tip, containing the collected insects, was then gently inserted into the soil containing the treated plant, allowing insects to crawl out of the tip to reach the foliage for feeding. Cups were covered with a reusable screened lid. Test plants were maintained in a growth room at about 25° C. and about 20-40% relative humidity for 3 days, avoiding direct exposure to fluorescent light (24 hour photoperiod) to prevent trapping of heat inside the cup. Mortality was assessed 3 days after treatment, compared to untreated control plants.

[9] = tested on: Southern Armyworm (Spodoptera eridania), 2nd Instar Larvae; test: B.10 Southern Armyworm (Spodoptera eridania), 2nd Instar Larvae, sprayed lima bean plants; conditions: 96 h, 300 ppm, larvae on sprayed lima bean plants, 4 days after treatment, in comparison with untreated controls, read-out: mortality
Experimental: B.10 Southern Armyworm (Spodoptera eridania), 2nd Instar Larvae
as §1, with “cyclohexanone” for “cyclohexa none”
Lima bean plants (variety Sieva) were grown 2 plants to a pot and selected for treatment at the 1st true leaf stage. Test solutions were sprayed onto the foliage by an automated electrostatic plant sprayer equipped with an atomizing spray nozzle. The plants were dried in the sprayer fume hood and then removed from the sprayer. Each pot was placed into perforated plastic bags with a zip closure. About 10 to 11 armyworm larvae were placed into the bag and the bags zipped closed. Test plants were maintained in a growth room at about 25° C. and about 20-40% relative humidity for 4 days, avoiding direct exposure to fluorescent light (24 hour photoperiod) to prevent trapping of heat inside the bags. Mortality and reduced feeding were assessed 4 days after treatment, compared to untreated control plants.

Cc1cc(Br)cc(C)c1NC(=S)N/N=C/c1ccc2c(ccc3c2ncn3-c2ccc(OC(F)(F)F)cc2)c1 [C-4, 1-(4-bromo-2,6-dimethyl-phenyl)-3-[(E)-[3-[4-(trifluoromethoxy)phenyl]benzo[e]benzimidazol-7-yl]methyleneamino]thiourea]
≥ 75%: mortality at 800 ppm [1] | mortality at 800 ppm [2] | mortality at 800 ppm [3] | mortality at 800 ppm [4] | mortality at 500 ppm [5] | mortality at 800 ppm [6] | mortality at 500 ppm [7]

CCc1ccccc1NC(=S)N/N=C/c1ccc2c(c1)CCc1c-2cnn1-c1ccc(OC(F)(F)F)cc1 [C-19, 1-(2-ethylphenyl)-3-[[3-[4-(trifluoromethoxy)phenyl]-5,8-dihydro-4H-benzo[e]indazol-7-ylidene]methylimino]thiourea]
≥ 75%: mortality at 300 ppm [8]

FC(F)(F)Oc1ccc(-n2cnc3c4ccc(/C=N/NC(=S)Nc5ccccc5C(F)(F)F)cc4ccc32)cc1 [C-24, 1-[[3-[4-(trifluoromethoxy)phenyl]-9aH-benzo[e]benzimidazol-7-ylidene]methylimino]-3-[2-(trifluoromethyl)phenyl]isothiourea]
≥ 75%: mortality at 800 ppm [3] | mortality at 500 ppm [5] | mortality at 300 ppm [8] | mortality at 800 ppm [6] | mortality at 500 ppm [7]

COc1ccc(C)cc1NC(=S)N/N=C/c1ccc2c(ccc3c2ncn3-c2ccc(OC(F)(F)F)cc2)c1 [C-25, 1-(2-methoxy-5-methyl-phenyl)-3-[(E)-[3-[4-(trifluoromethoxy)phenyl]benzo [e]benzimidazol-7-yl]methyleneamino] thiourea]
≥ 75%: mortality at 300 ppm [9] | mortality at 800 ppm [2] | mortality at 800 ppm [3] | mortality at 800 ppm [6]

C/C(=N\NC(=S)Nc1c(C)cccc1C)c1ccc2c(ccc3c2ncn3-c2ccc(OC(F)(F)F)cc2)c1 [C-58, 1-(2,6-dimethylphenyl)-3-[(E)-1-[3-[4-(trifluoromethoxy)phenyl]benzo[e]benzimidazol-7-yl]ethylideneamino]thiourea]
≥ 75%: mortality at 800 ppm [1] | mortality at 300 ppm [9] | mortality at 800 ppm [2] | mortality at 800 ppm [3] | mortality at 800 ppm [4] | mortality at 500 ppm [5] | mortality at 800 ppm [6] | mortality at 500 ppm [7]

Cc1cccc(Cl)c1NC(=S)N/N=C/c1ccc2c(ccc3c2ncn3-c2ccc(SC(F)(F)F)cc2)c1 [C-74, 1-(2-chloro-6-methyl-phenyl)-3-[(E)-[3-[4-(trifluoromethylsulfanyl)phenyl]benzo[e]benzimidazol-7-yl]methyleneamino]thiourea]
≥ 75%: mortality at 800 ppm [1] | mortality at 300 ppm [9] | mortality at 800 ppm [3] | mortality at 800 ppm [4] | mortality at 300 ppm [8] | mortality at 800 ppm [6] | mortality at 500 ppm [7]

CCc1cccc(C)c1NC(=S)N/N=C/c1ccc2c(ccc3c2ncn3-c2ccc(C(F)(F)F)cc2)c1 [C-78, 1-(2-ethyl-6-methyl-phenyl)-3-[(E)-[3-[4-(trifluoromethyl)phenyl]benzo[e]benzimidazol-7-yl]methyleneamino] thiourea]
≥ 75%: mortality at 300 ppm [9] | mortality at 800 ppm [3] | mortality at 800 ppm [4] | mortality at 500 ppm [5] | mortality at 300 ppm [8] | mortality at 800 ppm [6] | mortality at 500 ppm [7]

Cc1cccc(Cl)c1NC(=S)N/N=C/c1ccc2c(ccc3c2ncn3-c2ccc(OC(F)(F)F)cc2)c1 [C-79, 1-(2-chloro-6-methyl-phenyl)-3-[(E)-[3-[4-(trifluoromethoxy)phenyl]benzo[e]benzimidazol-7-yl]methyleneamino] thiourea]
≥ 75%: mortality at 800 ppm [1] | mortality at 300 ppm [9] | mortality at 800 ppm [2] | mortality at 800 ppm [3] | mortality at 800 ppm [4] | mortality at 500 ppm [5] | mortality at 800 ppm [6] | mortality at 500 ppm [7]

CCc1cccc(C)c1NC(=S)N/N=C/c1ccc2c(ccc3c(-c4ccc(OC(F)(F)F)cc4)n(C)nc32)c1 [C-92, 1-(2-ethyl-6-methyl-phenyl)-3-[(E)-[2-methyl-3-[4-(trifluoromethoxy)phenyl]benzo[g]indazol-7-yl]methyleneamino] thiourea]
≥ 75%: mortality at 800 ppm [1] | mortality at 800 ppm [2] | mortality at 800 ppm [3] | mortality at 800 ppm [4] | mortality at 500 ppm [5] | mortality at 800 ppm [6] | mortality at 500 ppm [7]

O=C(N/N=C/c1ccc2c(ccc3c2ncn3-c2ccc(OC(F)(F)F)cc2)c1)Nc1ccccc1Cl [C-100, 3-(2-chlorophenyl)-1-[[3-[4-(trifluoromethoxy)phenyl]-8H-benzo[e]benzimidazol-7-ylidene]methylimino] isourea]
≥ 75%: mortality at 300 ppm [8]

Cc1cccc(C)c1NC(=S)N/N=C/c1ccc2c(ccc3c2ncn3-c2ccc(C(F)(F)C(F)(F)F)cc2)c1 [C-110, 1-(2,6-dimethylphenyl)-3-[(E)-[3-[4-(1,1,2,2,2-pentafluoroethyl)phenyl]benzo[e]benzimidazol-7-yl]methyleneamino]thiourea]
≥ 75%: mortality at 800 ppm [1] | mortality at 800 ppm [2] | mortality at 800 ppm [3] | mortality at 800 ppm [4] | mortality at 800 ppm [6]

Cc1cccc(C)c1NC(=S)N/N=C/c1ccc2c(ccc3c2ncn3-c2ccc(C(F)(F)F)cc2F)c1 [C-113, 1-(2,6-dimethylphenyl)-3-[[3-[2-fluoro-4-(trifluoromethyl)phenyl]-3aH-benzo[e]benzimidazol-7-ylidene]methylimino]thiourea]
≥ 75%: mortality at 800 ppm [1] | mortality at 800 ppm [2] | mortality at 800 ppm [3] | mortality at 800 ppm [4] | mortality at 800 ppm [6]
